The results in this text go back to PubChem BioAssay (NCI).

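Growth conditions: 96-well plates. Treatment: test compound, 48 hours, 5 concentrations. Analysis: linear interpolation between bracketing concentrations; unreached endpoints set to highest concentration. The concentration for full growth arrest is given as TGI.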

Some test systems named below: CAKI-1 renal; EKVX NSCLC; HOP-92 NSCLC; IGROV1 ovarian; MALME-3M melanoma; MDA-MB-231 breast; NCI-H460 lung; SF-539 CNS; SK-MEL-28 melanoma; SNB-75 CNS.
Experiment in all cases: growth of human tumour cells (NCI), 48 h

Turning to `NC(N)=N/N=C/c1nc2sccn2c1[N+](=O)[O-]`, the TGI is greater than 100 µM in the experiment with CAKI-1 renal; greater than 100 µM with EKVX NSCLC; greater than 100 µM with HOP-92 NSCLC; greater than 100 µM in the experiment with IGROV1 ovarian; 26.3 µM with MALME-3M melanoma; 80.5 µM in the experiment with MDA-MB-231 breast. In addition, the TGI is 40.9 µM in the experiment with NCI-H460 lung, greater than 100 µM in the experiment on SF-539 CNS, greater than 100 µM in the experiment with SK-MEL-28 melanoma and 39.5 µM in the experiment on SNB-75 CNS.
